Reference: ChEMBL document CHEMBL1201862, “PubChem BioAssay data set” (2004)
Active and inactive are the calls of the source.

Tests used:
[1] = biological target: T1, Polyadenylate-binding protein 1 (Homo sapiens, UniProt P11940); test: MLLE domain peptide-binding blockers, IC50 – biochemical, fluorescence polarization, FITC-PAM2 peptide, dose response (AID 602259); format: functional; settings: read-out: IC50_Mean
Streptokinase A = biological target: T2, Streptokinase A (Streptococcus pyogenes serotype M1, UniProt P10520); test: viability-normalized secreted streptokinase activity reduction – plasminogen activation absorbance, OD405, dose response (AID 1914); format: functional, Streptococcus pyogenes M1 GAS;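 note: secreted streptokinase activity via plasminogen activation per viability signal from cell pellet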
T2 sequence (P10520 whole entry): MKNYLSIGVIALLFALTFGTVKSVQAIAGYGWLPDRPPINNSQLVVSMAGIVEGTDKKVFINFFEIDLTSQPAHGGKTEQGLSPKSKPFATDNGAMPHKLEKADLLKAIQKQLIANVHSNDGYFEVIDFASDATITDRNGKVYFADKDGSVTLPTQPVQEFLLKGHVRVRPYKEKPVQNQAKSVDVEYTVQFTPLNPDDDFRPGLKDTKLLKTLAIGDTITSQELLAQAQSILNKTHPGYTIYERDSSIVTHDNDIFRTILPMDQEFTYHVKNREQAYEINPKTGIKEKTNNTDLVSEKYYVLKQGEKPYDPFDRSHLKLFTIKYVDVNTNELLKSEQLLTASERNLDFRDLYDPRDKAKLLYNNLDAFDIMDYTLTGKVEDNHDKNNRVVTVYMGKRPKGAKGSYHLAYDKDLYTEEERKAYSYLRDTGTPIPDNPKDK

Protein RecA = biological target: T3, Protein RecA (Mycobacterium tuberculosis, UniProt P9WHJ3); test: Fluorescence Cell-Free Homogeneous Dose Retest to Identify Inhibitors of RecA-Intein Splicing Activity. [Related pubchem assays (depositor defined):AID2097, AID2223, AID489010, AID492950]; format: functional
T3 sequence (P9WHJ3 whole entry): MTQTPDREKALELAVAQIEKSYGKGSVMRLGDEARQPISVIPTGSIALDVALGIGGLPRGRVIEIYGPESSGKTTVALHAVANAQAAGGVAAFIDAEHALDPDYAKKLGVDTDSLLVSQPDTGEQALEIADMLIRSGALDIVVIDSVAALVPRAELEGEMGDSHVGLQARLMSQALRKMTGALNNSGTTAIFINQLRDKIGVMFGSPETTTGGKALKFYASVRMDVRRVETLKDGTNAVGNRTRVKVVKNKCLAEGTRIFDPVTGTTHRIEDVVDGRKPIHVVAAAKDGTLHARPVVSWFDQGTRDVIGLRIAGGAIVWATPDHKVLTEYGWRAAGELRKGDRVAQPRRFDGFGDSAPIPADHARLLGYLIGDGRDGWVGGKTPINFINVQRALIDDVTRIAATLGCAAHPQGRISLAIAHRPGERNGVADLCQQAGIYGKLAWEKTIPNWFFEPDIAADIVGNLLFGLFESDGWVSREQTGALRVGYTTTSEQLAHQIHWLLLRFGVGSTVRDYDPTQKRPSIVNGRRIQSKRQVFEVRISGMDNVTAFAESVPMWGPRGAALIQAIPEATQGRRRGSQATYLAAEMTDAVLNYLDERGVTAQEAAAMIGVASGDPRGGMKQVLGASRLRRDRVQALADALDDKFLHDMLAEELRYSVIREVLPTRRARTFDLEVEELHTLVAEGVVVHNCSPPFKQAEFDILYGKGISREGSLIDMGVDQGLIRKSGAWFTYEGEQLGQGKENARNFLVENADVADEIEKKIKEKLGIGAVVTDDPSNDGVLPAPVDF

[2] = viability loss in HEK293T cells – cell-based, cherry-picks, cytotoxicity control for HIV Vif inhibitor project, dose response (AID 652208); format: functional
[3] = non-specific 3'UTR reporter inhibition in Clone20-Shn3RL – cell-based, Renilla luciferase, cherry-picked, counter-screen for Shn3 inhibitor project, dose response (AID 624133); format: functional
[4] = system: Streptococcus sp. 'group A'; test: Streptococcus pyogenes SK(-)GAS viability under kanamycin – luminescence, BacTiterGlo, confirmation, counter-screen for streptokinase expression inhibitor project, dose response (AID 1900); format: functional, organism-based
[5] = loss of viability in HepG2 cells – cell-based, CellTiter-Glo, cherry-picked, cytotoxicity control for Shn3 inhibitor project, dose response (AID 624134); format: functional
[6] = NIH-3T3 fibroblast cytotoxicity, dose response, cytotoxicity control, cell-based, fluorescence, Alamar Blue, secondary assay (AID 2327); format: functional;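 note: NIH-3T3 mouse fibroblasts cultured with fluconazole at 8 µg/mL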
[7] = biological target: T1, Polyadenylate-binding protein 1; test: MLLE binding blockers, Cy5 peptide tracer – biochemical, fluorescence polarization, Cy5-PAM2 peptide, secondary, miRNA deadenylation inhibitor project, dose response (AID 602260); format: functional; settings: read-out: IC50_Mean
Streptococcus = test: GAS UMAA2166 growth inhibition – luminescence, BacTiterGlo, counter-screen for streptokinase expression inhibitor project, dose response (AID 1915); format: functional, organism-based;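 note: potency for reduction of bacterial viability or growth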
[8] = biological target: Heat shock protein HSP 90-alpha (Homo sapiens, UniProt P07900); format: functional, organism-based
[9] = reduction of Shn3 3'UTR-driven luciferase in osteoblasts – cell-based, Clone20 osteoblasts, firefly luciferase, cherry-picked, dose response (AID 624132); format: functional;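 note: firefly luciferase luminescence from reporter carrying the Shn3 3'UTR in osteoblasts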
[10] = biological target: T4, Replicative DNA helicase DnaB (Mycobacterium tuberculosis, UniProt P9WMR3); test: DnaB intein splicing inhibitors, dose response, biochemical, cell-free fluorescence (AID 449749); format: functional
T4 sequence (P9WMR3 whole entry): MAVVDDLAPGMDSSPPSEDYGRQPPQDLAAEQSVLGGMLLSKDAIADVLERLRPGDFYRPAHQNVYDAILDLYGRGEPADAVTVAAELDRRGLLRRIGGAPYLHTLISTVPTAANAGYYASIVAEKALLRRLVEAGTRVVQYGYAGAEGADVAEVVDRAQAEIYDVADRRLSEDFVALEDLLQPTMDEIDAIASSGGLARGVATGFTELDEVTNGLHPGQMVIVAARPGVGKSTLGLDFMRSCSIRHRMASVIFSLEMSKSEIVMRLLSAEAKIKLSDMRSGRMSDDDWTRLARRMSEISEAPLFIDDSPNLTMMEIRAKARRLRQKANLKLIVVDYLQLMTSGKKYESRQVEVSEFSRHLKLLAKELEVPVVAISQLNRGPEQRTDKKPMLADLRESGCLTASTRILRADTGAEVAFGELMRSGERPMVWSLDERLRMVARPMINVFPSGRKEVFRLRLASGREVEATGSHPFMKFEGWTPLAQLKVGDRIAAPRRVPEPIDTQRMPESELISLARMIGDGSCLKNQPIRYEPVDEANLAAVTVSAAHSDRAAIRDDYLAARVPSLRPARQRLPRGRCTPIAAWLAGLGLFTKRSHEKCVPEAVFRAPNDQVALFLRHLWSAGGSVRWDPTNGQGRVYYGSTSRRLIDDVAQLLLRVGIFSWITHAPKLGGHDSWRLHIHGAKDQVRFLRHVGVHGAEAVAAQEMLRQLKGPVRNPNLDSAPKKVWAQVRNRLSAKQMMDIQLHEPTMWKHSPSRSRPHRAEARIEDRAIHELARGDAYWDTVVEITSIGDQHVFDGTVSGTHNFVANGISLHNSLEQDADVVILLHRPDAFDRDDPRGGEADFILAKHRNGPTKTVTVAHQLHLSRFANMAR

[11] = fluconazole-exposed Candida albicans growth modulators – fluorescence, retest, confirmation (AID 2467); format: functional, cell-based
[12] = biological target: T5, Trace amine-associated receptor 1 (Homo sapiens, UniProt Q96RJ0); test: Counterscreen for agonists of the human trace amine associated receptor 1 (hTAAR1): Fluorescence-based cell-based high throughput dose response assay to identify hTAAR1 agonist that also desensitize TAAR1 receptor response.; format: functional
T5 sequence (Q96RJ0 whole entry): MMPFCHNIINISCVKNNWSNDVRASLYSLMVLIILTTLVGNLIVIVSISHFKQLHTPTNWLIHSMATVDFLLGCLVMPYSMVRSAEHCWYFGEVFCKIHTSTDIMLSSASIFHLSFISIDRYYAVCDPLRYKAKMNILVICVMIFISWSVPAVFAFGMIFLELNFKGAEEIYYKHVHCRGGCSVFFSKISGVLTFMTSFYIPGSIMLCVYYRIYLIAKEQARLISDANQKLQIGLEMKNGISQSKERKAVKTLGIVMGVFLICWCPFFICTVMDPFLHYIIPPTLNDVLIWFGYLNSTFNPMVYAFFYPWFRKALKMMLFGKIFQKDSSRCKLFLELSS

[13] = biological target: T5, Trace amine-associated receptor 1; test: Fluorescence-based cell-based high throughput dose response assay to identify agonists of the human trace amine associated receptor 1 (TAAR1).; format: functional
cells [14] = format: functional, cell-based
cells [15] = format: functional, cell-based; remark: listed apart in the source

T1 sequence (P11940 whole entry, the tested form may be a part): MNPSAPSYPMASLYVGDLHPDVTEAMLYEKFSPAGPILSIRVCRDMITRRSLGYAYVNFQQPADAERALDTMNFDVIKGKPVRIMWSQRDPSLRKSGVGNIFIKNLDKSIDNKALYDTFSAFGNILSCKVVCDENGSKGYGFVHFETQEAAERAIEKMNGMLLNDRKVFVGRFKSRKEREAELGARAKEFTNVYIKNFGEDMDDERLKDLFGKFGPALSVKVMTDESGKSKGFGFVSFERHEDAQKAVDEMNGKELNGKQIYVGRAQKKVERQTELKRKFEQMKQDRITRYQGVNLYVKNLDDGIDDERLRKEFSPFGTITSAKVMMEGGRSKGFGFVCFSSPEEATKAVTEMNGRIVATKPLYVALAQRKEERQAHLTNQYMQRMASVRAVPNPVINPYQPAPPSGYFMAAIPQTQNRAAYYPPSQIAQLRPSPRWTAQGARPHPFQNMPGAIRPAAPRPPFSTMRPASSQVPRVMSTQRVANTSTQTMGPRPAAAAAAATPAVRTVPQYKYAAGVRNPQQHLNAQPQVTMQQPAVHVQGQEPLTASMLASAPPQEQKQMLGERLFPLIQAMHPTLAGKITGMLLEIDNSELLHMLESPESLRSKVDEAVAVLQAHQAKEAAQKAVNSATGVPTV

SMILES	IC50 [1]	EC50 (Streptokinase A)	EC50 (Protein RecA)	AC50 [2]	AC50 [3]	EC50 [4]	AC50 [5]	EC50 [6]	IC50 [7]	EC50 (Streptococcus)	AC50 [8]	AC50 [9]	AC50 [10]	EC50 [11]	IC50 [12]	EC50 [13]	IC50 (cells [14])	EC50 (cells [15])
Cc1ccc(C(c2cc(Cl)c3cccnc3c2O)N2CCN(C)CC2)cc1 (configuration not stated)	> 66 µM (inactive)	> 150 µM (not active)	1.96 µM (active)	> 52 µM (inactive)	16.4 µM (active)	1.49 µM (active)	35.2 µM (active)	3.84 µM (inconclusive)	> 66 µM (inactive)	15.3 µM (active)	1.59 µM (active)	5.54 µM (active)	> 380 µM (inactive)	0.374 µM (active)	–	–	–	–
CCCOC1CCCN(C(=O)c2cc(Cl)c(Cl)cc2C(=O)O)C1 (configuration not stated)	–	–	–	–	–	–	–	–	–	–	–	–	–	–	> 29.9 µM (inactive)	8.64 µM (active)	> 29.9 µM (inactive)	> 29.9 µM (inactive)
C/C(=N\CCc1ccccc1)C1=C(O)CCC1=O	–	–	–	–	–	–	–	–	–	–	–	–	–	–	8.63 µM (active)	1.94 µM (active)	> 29.9 µM (inactive)	> 29.9 µM (inactive)
